Source: the NIST ThermoML archive (doi:10.1021/je0601457)
Numbers after ± are expanded uncertainties.

Assay: xn = mol fraction of the nth substance listed

c1cnccn1 [pyrazine] + O=C=O
Fluid (supercritical or subcritical phases), Linear displacement technique
Conditions | mass density [kg/m3]
294.25 K, 5340 kPa, x1 = 0.308 | 1054 ± 42
294.25 K, 9480 kPa, x1 = 0.308 | 1070 ± 43
294.25 K, 12170 kPa, x1 = 0.308 | 1078 ± 43
295.55 K, 6450 kPa, x1 = 0.019 | 854 ± 36
295.55 K, 7000 kPa, x1 = 0.019 | 877 ± 36
295.55 K, 9070 kPa, x1 = 0.019 | 915 ± 37
295.65 K, 5520 kPa, x1 = 0.146 | 887 ± 36
295.65 K, 5970 kPa, x1 = 0.074 | 926 ± 39
295.65 K, 6100 kPa, x1 = 0.074 | 929 ± 37
295.65 K, 6310 kPa, x1 = 0.074 | 941 ± 38
295.65 K, 6380 kPa, x1 = 0.116 | 815 ± 33
295.65 K, 6520 kPa, x1 = 0.146 | 898 ± 36
295.65 K, 8210 kPa, x1 = 0.116 | 833 ± 33
295.65 K, 12790 kPa, x1 = 0.146 | 926 ± 37
296.25 K, 6140 kPa, x1 = 0.09 | 873 ± 35
296.25 K, 9830 kPa, x1 = 0.09 | 923 ± 37
298.25 K, 6590 kPa, x1 = 0.015 | 863 ± 36
298.25 K, 7520 kPa, x1 = 0.015 | 892 ± 36
298.25 K, 8790 kPa, x1 = 0.015 | 918 ± 37
299.45 K, 7760 kPa, x1 = 0.224 | 921 ± 37
300.75 K, 6520 kPa, x1 = 0.177 | 894 ± 36
300.75 K, 7070 kPa, x1 = 0.177 | 898 ± 40
300.75 K, 10790 kPa, x1 = 0.177 | 917 ± 37
303.65 K, 7070 kPa, x1 = 0.074 | 903 ± 36
303.65 K, 8720 kPa, x1 = 0.074 | 924 ± 37
303.75 K, 7480 kPa, x1 = 0.015 | 828 ± 33
303.75 K, 9410 kPa, x1 = 0.015 | 898 ± 39
303.75 K, 10240 kPa, x1 = 0.015 | 917 ± 37
303.75 K, 12450 kPa, x1 = 0.015 | 956 ± 47
304.15 K, 7690 kPa, x1 = 0.019 | 791 ± 35
304.15 K, 8380 kPa, x1 = 0.019 | 826 ± 35
304.15 K, 9210 kPa, x1 = 0.019 | 849 ± 37
304.15 K, 10520 kPa, x1 = 0.019 | 876 ± 35
304.15 K, 11900 kPa, x1 = 0.019 | 898 ± 37
304.25 K, 7340 kPa, x1 = 0.116 | 798 ± 32
304.25 K, 7550 kPa, x1 = 0.116 | 801 ± 32
304.25 K, 9550 kPa, x1 = 0.116 | 816 ± 34
304.95 K, 7280 kPa, x1 = 0.308 | 1036 ± 41
304.95 K, 9690 kPa, x1 = 0.308 | 1041 ± 42
304.95 K, 13620 kPa, x1 = 0.308 | 1052 ± 42
305.75 K, 6930 kPa, x1 = 0.146 | 839 ± 51
305.75 K, 7280 kPa, x1 = 0.146 | 863 ± 35
305.75 K, 11690 kPa, x1 = 0.146 | 886 ± 35
305.85 K, 7340 kPa, x1 = 0.09 | 858 ± 34
305.85 K, 10170 kPa, x1 = 0.09 | 884 ± 36
306.35 K, 6520 kPa, x1 = 0.397 | 1049 ± 42
306.35 K, 9690 kPa, x1 = 0.397 | 1061 ± 42
306.35 K, 13690 kPa, x1 = 0.397 | 1070 ± 43
308.25 K, 7550 kPa, x1 = 0.074 | 882 ± 35
308.25 K, 9480 kPa, x1 = 0.074 | 906 ± 36
308.65 K, 6030 kPa, x1 = 0.495 | 999 ± 40
308.65 K, 7000 kPa, x1 = 0.495 | 1001 ± 40
308.65 K, 9240 kPa, x1 = 0.495 | 1008 ± 40
309.45 K, 7070 kPa, x1 = 0.177 | 872 ± 35
309.45 K, 7620 kPa, x1 = 0.177 | 874 ± 35
309.45 K, 9760 kPa, x1 = 0.177 | 884 ± 36
312.05 K, 9480 kPa, x1 = 0.224 | 899 ± 36
312.05 K, 9760 kPa, x1 = 0.015 | 778 ± 35
312.05 K, 9930 kPa, x1 = 0.015 | 787 ± 35
312.05 K, 10410 kPa, x1 = 0.015 | 812 ± 34
312.05 K, 11100 kPa, x1 = 0.015 | 835 ± 35
312.05 K, 16790 kPa, x1 = 0.224 | 919 ± 37
312.75 K, 7760 kPa, x1 = 0.308 | 1023 ± 41
312.75 K, 11690 kPa, x1 = 0.308 | 1033 ± 41
312.75 K, 14830 kPa, x1 = 0.308 | 1043 ± 42
313.55 K, 8450 kPa, x1 = 0.116 | 773 ± 31
313.55 K, 8790 kPa, x1 = 0.116 | 778 ± 31
313.55 K, 10860 kPa, x1 = 0.116 | 791 ± 33
313.65 K, 9030 kPa, x1 = 0.019 | 687 ± 46
313.65 K, 9140 kPa, x1 = 0.019 | 712 ± 46
313.65 K, 9830 kPa, x1 = 0.019 | 761 ± 35
313.65 K, 10450 kPa, x1 = 0.019 | 792 ± 34
313.65 K, 10860 kPa, x1 = 0.019 | 809 ± 33
313.65 K, 12520 kPa, x1 = 0.019 | 850 ± 35
314.85 K, 8240 kPa, x1 = 0.146 | 833 ± 33
314.85 K, 8860 kPa, x1 = 0.146 | 839 ± 34
314.85 K, 14240 kPa, x1 = 0.146 | 869 ± 35
314.95 K, 7830 kPa, x1 = 0.397 | 1040 ± 42
314.95 K, 11280 kPa, x1 = 0.397 | 1048 ± 42
314.95 K, 15140 kPa, x1 = 0.397 | 1060 ± 42
315.85 K, 8660 kPa, x1 = 0.09 | 813 ± 33
318.95 K, 9210 kPa, x1 = 0.015 | 512 ± 25
318.95 K, 9280 kPa, x1 = 0.015 | 527 ± 25
318.95 K, 9480 kPa, x1 = 0.015 | 571 ± 26
320.15 K, 9140 kPa, x1 = 0.09 | 806 ± 38
320.15 K, 10790 kPa, x1 = 0.09 | 830 ± 33
320.95 K, 9660 kPa, x1 = 0.224 | 877 ± 35
320.95 K, 13000 kPa, x1 = 0.224 | 889 ± 36
321.55 K, 9280 kPa, x1 = 0.177 | 839 ± 34
321.55 K, 10520 kPa, x1 = 0.177 | 847 ± 34
321.55 K, 12520 kPa, x1 = 0.177 | 857 ± 34

linear displacement
Conditions | mass density [kg/m3]
294.25 K, Liquid, x1 = 0.308 | 1048 ± 43
295.55 K, Liquid, x1 = 0.019 | 842 ± 34
295.65 K, Liquid, x1 = 0.074 | 922 ± 37
295.65 K, Liquid, x1 = 0.116 | 809 ± 32
295.65 K, Liquid, x1 = 0.146 | 887 ± 36
296.25 K, Liquid, x1 = 0.09 | 864 ± 35
298.25 K, Liquid, x1 = 0.015 | 857 ± 34
299.45 K, Liquid, x1 = 0.224 | 910 ± 36
300.75 K, Liquid, x1 = 0.177 | 889 ± 36
303.65 K, Liquid, x1 = 0.074 | 900 ± 36
303.75 K, Liquid, x1 = 0.015 | 802 ± 32
304.15 K, Liquid, x1 = 0.019 | 776 ± 31
304.25 K, Liquid, x1 = 0.116 | 795 ± 32
304.95 K, Liquid, x1 = 0.308 | 1028 ± 41
305.75 K, Liquid, x1 = 0.146 | 860 ± 35
305.85 K, Liquid, x1 = 0.09 | 854 ± 34
306.35 K, Liquid, x1 = 0.397 | 1042 ± 42
308.25 K, Liquid, x1 = 0.074 | 878 ± 35
308.65 K, Liquid, x1 = 0.495 | 992 ± 40
309.45 K, Liquid, x1 = 0.177 | 870 ± 35
312.05 K, Liquid, x1 = 0.015 | 656 ± 26
312.05 K, Liquid, x1 = 0.224 | 887 ± 36
312.75 K, Liquid, x1 = 0.308 | 1019 ± 41
313.55 K, Liquid, x1 = 0.116 | 771 ± 31
313.65 K, Liquid, x1 = 0.019 | 679 ± 27
314.85 K, Liquid, x1 = 0.146 | 830 ± 34
314.95 K, Liquid, x1 = 0.397 | 1037 ± 42
315.85 K, Liquid, x1 = 0.09 | 810 ± 32
318.95 K, Gas, x1 = 0.015 | 452 ± 18
320.15 K, Liquid, x1 = 0.09 | 799 ± 32
320.95 K, Liquid, x1 = 0.224 | 870 ± 35
